# Where two headings read alike, the source gives them in different places. Where no end group is shown, it is not given here.
# Columns and labels:
# [1] = target: T1, growth hormone secretagogue receptor (GHSR), porcine anterior pituitary membranes (Sus scrofa, UniProt Q95254); experiment: [35S]-Compound A radioreceptor binding, porcine anterior pituitary membranes; settings: for affinity relative to that of Compound A: % of affinity of Compound A; for nature of competition with [35S]-Compound A (in words): double reciprocal plot of saturation isotherm, FIG. 25
# T1 construct: Frozen anterior pituitary glands from male swine (50-80 Kg); from tissue; host or cells: anterior pituitary glands of male swine (50-80 kg), crude membranes
# Protocol: Frozen anterior pituitary glands from male swine (50-80 Kg) or from the Wistar male rats (150-200 g) were homogenized in a tissue homogenizer in ice-cold buffer (50 mM Tris-HCl buffer, pH 7.4, 5 mM MgCl2, 2.5 mM EDTA, 0.1% bovine serum albumin and 30 μg/ml bacitracin). The homogenates were centrifuged for 5 min at 1,400×g and the resulting supernatants were then centrifuged at 34,000×g for 20 min. The pellets were resuspended in same buffer to a 1,500 μg protein/ml and stored at -80° C. Protein was determined by a Bio-Rad method (Bio-Rad Laboratories, Richmond, Calif.).
# Aliquots were incubated at 20° C. for 60 min and bound radioligand was separated from free by filtration through GF/C filters pretreated with 0.5% of polyethylenimine in a Brandel cell harvester. […] Assays were carried out in triplicate and experiments repeated at least three times.
# [2] = target: growth hormone secretagogue receptor (GHSR) of swine, native receptor of the anterior pituitary (swine) (UniProt Q95254); experiment: competition with [35S]-Compound A on porcine anterior pituitary membranes, filtration
# T1 sequence (Q95254 whole entry): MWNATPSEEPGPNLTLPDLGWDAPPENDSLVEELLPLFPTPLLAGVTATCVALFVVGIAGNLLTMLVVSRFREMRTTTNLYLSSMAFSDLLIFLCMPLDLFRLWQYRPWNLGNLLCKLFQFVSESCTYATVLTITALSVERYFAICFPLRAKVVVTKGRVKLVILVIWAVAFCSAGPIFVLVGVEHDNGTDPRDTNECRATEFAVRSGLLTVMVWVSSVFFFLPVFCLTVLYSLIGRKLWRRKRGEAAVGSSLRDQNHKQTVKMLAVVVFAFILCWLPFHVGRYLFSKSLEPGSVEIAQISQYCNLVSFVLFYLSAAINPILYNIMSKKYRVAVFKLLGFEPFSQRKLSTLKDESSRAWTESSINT
Molecule,competition with [35S]-Compound A at 1 μM (in words) [1],other results
"GHRH: hypothalamic hormone, growth hormone releasing factor",did not compete,
CC(C)(N)CC(=O)N[C@@H]1CCc2ccccc2N(Cc2ccc(-c3ccccc3-c3nn[nH]n3)cc2)C1=O [Compound B],,affinity relative to that of Compound A [1]: 0.4%; nature of competition with [35S]-Compound A (in words) [1]: competitor of [^35 S]-Compound A binding
CC(COc1ccccc1)N(CCCl)Cc1ccccc1 (stereo not drawn) [phenoxybenzamine],did not compete,
melanocyte stimulating hormone,did not compete,
Nc1nc2c(ncn2[C@@H]2O[C@H](COP(=O)(O)OP(=O)(O)NP(=O)(O)O)[C@@H](O)[C@H]2O)c(=O)[nH]1 [GMP-PNP],,"IC50 ([1]; GTP analogs / nucleotides, FIG. 26, read-out: inhibition of [35S]-Compound A binding, IC50): 110 nM"
Nc1nc2c(ncn2[C@@H]2O[C@H](COP(=O)(O)OP(=O)(O)OP(O)(O)=S)[C@@H](O)[C@H]2O)c(=O)[nH]1 [GTP-γ-S],,IC50 [1]: 30 nM
met-enkephalin,did not compete,
GHRP-6 (peptide),,affinity as percent of that of Compound A [2]: 3.8%
NC(=O)[C@@H]1CCCN1C(=O)[C@H](Cc1cnc[nH]1)NC(=O)[C@@H]1CCC(=O)N1 [thyrotropin releasing hormone],did not compete,
"PHM-27 (HADGVFTSDFSKLLGQLSAKKYLESLM; ends and bridges not checked; UniProt P01282 81-107, looked up)",did not compete,
Nc1ncnc2c1ncn2[C@@H]1O[C@H](COP(=O)(O)OP(=O)(O)OP(O)(O)=S)[C@@H](O)[C@H]1O [ATP-γ-S],,"effect on [35S]-Compound A binding (in words) ([1]; nucleotides, FIG. 26): ineffective"
CC(C)C[C@H]1C(=O)N2CCC[C@H]2[C@]2(O)O[C@](NC(=O)[C@@H]3C=C4c5cccc6[nH]c(Br)c(c56)C[C@H]4N(C)C3)(C(C)C)C(=O)N12 [bromocriptine],did not compete,
CC(C)NCC(O)c1ccc(O)c(O)c1 (stereo not drawn) [isoproterenol],did not compete,
COc1ccc(OC)c(C(O)C(C)N)c1 (stereo not drawn) [methoxamine],did not compete,
"gastrin releasing peptide (VPLPAGGGTVLTKMYPRGNHWAVGHLM; ends and bridges not checked; UniProt P07492 24-50, looked up)",did not compete,
GHRP-6,,affinity relative to that of Compound A [1]: 3.8%; nature of competition with [35S]-Compound A (in words) [1]: interacts competitively with Compound A in the same binding site
pituitary adenylate cyclase activating polypeptide-38,did not compete,
somatostatin: hypothalamic hormone,did not compete,
substance P,did not compete,
galanin,did not compete,
gonadotropin releasing hormone,did not compete,
CC(C)(N)CC(=O)N[C@H]1CCc2ccccc2N(Cc2ccc(-c3ccccc3-c3nn[nH]n3)cc2)C1=O [Compound C],,"displacement of / competition with [35S]-Compound A binding (in words) ([1]; unlabeled competitor, FIG. 24): competed poorly"
CC(C)NC[C@H](O)COc1cccc2ccccc12 (racemic) [propanolol],did not compete,
Clc1cccc(Cl)c1N=C1NCCN1 [clonidine],did not compete,
COc1cccc(OC)c1OCCNCC1CSc2ccccc2O1 (stereo not drawn) [benoxathian],did not compete,
